{"source": "patent US7256192B2", "about": "“Aromatic diamide derivatives, chemicals for agricultural or horticultural use and usage thereof” (Nihon Nohyaku Co., Ltd., priority 1999, dated 2007)", "tested_on": "common cutworm (Spodoptera litura)", "test": "Insecticidal effect on common cutworm (Test Example 2)", "assay_type": "in vivo", "conditions": "50 ppm; cabbage leaf immersed about 30 seconds; second-instar larvae; eight days after the inoculation; 25° C.", "from_the_text": "Insecticidal effect on common cutworm (Spodoptera litura)\nA piece of cabbage leaf (cultivar: Shikidori) was immersed for about 30 seconds in a liquid chemical prepared by diluting a preparation containing each compound listed in Table 1 or Table 2, as an active ingredient to adjust the concentration to 50 ppm. After air-drying, the piece was placed in a plastic Petri dish with a diameter of 9 cm and inoculated with second-instar larvae of common cutworm, after which the dish was closed and then allowed to stand in a room thermostated at 25° C. Eight days after the inoculation, the dead and alive were counted and the mortality was calculated according to the following equation, whereby the insecticidal effect was judged according to the criterion shown in Test Example 1. The test was carried out with three replications of 10 insects."}
{"molecule": "Cc1cc(C(F)(C(F)(F)F)C(F)(F)F)ccc1NC(=O)c1cccc(I)c1C(=O)NC(C)COC(=O)N(C)C", "note": "(stereo not shown) [compound 88]", "values": [{"measurement": "insecticidal activity (mortality rating)", "result": "B or higher"}]}
{"molecule": "COc1ccc(CNC(=O)OCC(C)NC(=O)c2c(I)cccc2C(=O)Nc2ccc(OC(C(F)(F)F)C(F)(F)F)nc2C)cc1", "note": "(racemic) [2-72]", "values": [{"measurement": "insecticidal activity (mortality rating)", "result": "B or higher"}]}
{"molecule": "CCCNC(=O)OCC(C)(C)NC(=O)c1c(I)cccc1C(=O)Nc1ccc(C(F)(C(F)(F)F)C(F)(F)F)cc1C", "note": "[compound 129]", "values": [{"measurement": "insecticidal activity (mortality rating)", "result": "B or higher"}]}
{"molecule": "CCNC(=O)OCC(C)NC(=O)c1c(I)cccc1C(=O)Nc1ccc(C(F)(C(F)(F)F)C(F)(F)F)nc1Cl", "note": "(racemic) [2-39]", "values": [{"measurement": "insecticidal activity (mortality rating)", "result": "B or higher"}]}
{"molecule": "COCCNC(=O)OCC(C)(C)NC(=O)c1c(I)cccc1C(=O)Nc1ccc(C(F)(C(F)(F)F)C(F)(F)F)cc1C", "note": "[compound 172]", "values": [{"measurement": "insecticidal activity (mortality rating)", "result": "B or higher"}]}
{"molecule": "Cc1cc(C(F)(C(F)(F)F)C(F)(F)F)ccc1NC(=O)c1ccc(Cl)c(Cl)c1C(=O)NC(C)COC(=O)NCc1ccccc1", "note": "(stereo not shown) [compound 229]", "values": [{"measurement": "insecticidal activity (mortality rating)", "result": "B or higher"}]}
{"molecule": "COCCC(C)NC(=O)c1c(I)cccc1C(=O)Nc1ccc(C(F)(C(F)(F)F)C(F)(F)F)cc1C", "note": "(stereo not shown) [compound 59]", "values": [{"measurement": "insecticidal activity (mortality rating)", "result": "B or higher"}]}
{"molecule": "Cc1cc(C(F)(C(F)(F)F)C(F)(F)F)ccc1NC(=O)c1cccc(I)c1C(=O)NC(C)(C)CNC(=O)C1CC1", "note": "[compound 29]", "values": [{"measurement": "insecticidal activity (mortality rating)", "result": "B or higher"}]}
{"molecule": "CC(=O)NCC(C)(C)NC(=O)c1c(I)cccc1C(=O)Nc1ccc(C(F)(C(F)(F)F)C(F)(F)F)cc1C", "note": "[compound 28]", "values": [{"measurement": "insecticidal activity (mortality rating)", "result": "B or higher"}]}
{"molecule": "CCNC(=O)OCC(C)NC(=O)c1c(I)cccc1C(=O)Nc1ccc(OC(C(F)(F)F)C(F)(F)F)nc1C", "note": "(racemic) [2-47]", "values": [{"measurement": "insecticidal activity (mortality rating)", "result": "B or higher"}]}
{"molecule": "Cc1cc(C(F)(C(F)(F)F)C(F)(F)F)ccc1NC(=O)c1cccc(I)c1C(=O)NCC1COC(C)(C)O1", "note": "(stereo not shown) [compound 51]", "values": [{"measurement": "insecticidal activity (mortality rating)", "result": "B or higher"}]}
{"molecule": "COC(=O)NCC(C)NC(=O)c1c(I)cccc1C(=O)Nc1ccc(C(F)(C(F)(F)F)C(F)(F)F)cc1C", "note": "(stereo not shown) [compound 22]", "values": [{"measurement": "insecticidal activity (mortality rating)", "result": "B or higher"}]}
{"molecule": "CCNC(=O)OCC(C)NC(=O)c1c(I)cccc1C(=O)Nc1ccc(C(F)(F)C(F)(F)C(F)(F)F)cc1C", "note": "(stereo not shown) [compound 272]", "values": [{"measurement": "insecticidal activity (mortality rating)", "result": "B or higher"}]}
{"molecule": "Cc1cc(C(F)(C(F)(F)F)C(F)(F)F)ccc1NC(=O)c1cccc(I)c1C(=O)NC(C)CCOCC(C)C", "note": "(stereo not shown) [compound 74]", "values": [{"measurement": "insecticidal activity (mortality rating)", "result": "B or higher"}]}
{"molecule": "Cc1cc(OC(F)(F)F)ccc1NC(=O)c1cccc(I)c1C(=O)NC(C)COC(=O)NC1CC1", "note": "(stereo not shown) [compound 134]", "values": [{"measurement": "insecticidal activity (mortality rating)", "result": "B or higher"}]}
{"molecule": "CNC(=O)OCC(C)(C)NC(=O)c1c(I)cccc1C(=O)Nc1ccc(C(F)(C(F)(F)F)C(F)(F)F)nc1C", "note": "[2-35]", "values": [{"measurement": "insecticidal activity (mortality rating)", "result": "B or higher"}]}
{"molecule": "CCNC(=O)OCC(C)NC(=O)c1c(I)cccc1C(=O)Nc1ccc(C(OCC)(C(F)(F)F)C(F)(F)F)cc1C", "note": "(stereo not shown) [compound 279]", "values": [{"measurement": "insecticidal activity (mortality rating)", "result": "B or higher"}]}
{"molecule": "CCCNC(=O)OCC(C)(C)NC(=O)c1c(I)cccc1C(=O)Nc1ccc(C(F)(C(F)(F)F)C(F)(F)F)cc1Cl", "note": "[compound 130]", "values": [{"measurement": "insecticidal activity (mortality rating)", "result": "B or higher"}]}
{"molecule": "CCOC(=O)NCC(C)(C)NC(=O)c1c(I)cccc1C(=O)Nc1ccc(C(F)(F)C(F)(F)F)cc1C", "note": "[compound 19]", "values": [{"measurement": "insecticidal activity (mortality rating)", "result": "B or higher"}]}
{"molecule": "Cc1cc(C(F)(C(F)(F)F)C(F)(F)F)ccc1NC(=O)c1cccc(I)c1C(=O)NC(C)COC(=O)NC1CC1", "note": "(stereo not shown) [compound 133]", "values": [{"measurement": "insecticidal activity (mortality rating)", "result": "B or higher"}]}
{"molecule": "CCN(CC)C(=O)OCC(C)NC(=O)c1c(I)cccc1C(=O)Nc1ccc(C(F)(C(F)(F)F)C(F)(F)F)nc1C", "note": "(racemic) [2-32]", "values": [{"measurement": "insecticidal activity (mortality rating)", "result": "B or higher"}]}
{"molecule": "CSCCCNC(=O)OCC(C)(C)NC(=O)c1c(I)cccc1C(=O)Nc1ccc(C(F)(C(F)(F)F)C(F)(F)F)cc1C", "note": "[compound 184]", "values": [{"measurement": "insecticidal activity (mortality rating)", "result": "B or higher"}]}
